Test results reported in US20080234223A1, “N4 MODIFICATIONS OF PYRIMIDINE ANALOGS AND USES THEREOF” (UNIVERSITY OF SOUTHERN CALIFORNIA, priority 2006, published 2008).

Columns and labels:
[1] = rapid deamination by plasma cytidine deaminase; cited from earlier work
[2] = system: LINE-1 DNA methylation in Hep3B cells (liver); assay: Global DNA methylation, bisulfite-PCR pyrosequencing of LINE-1, Hep3B cells; assay type: cell-based; settings: 10 μM, three days
Protocol: (§1) T24 cells (urinary bladder transitional cell carcinoma), MCF7 (breast adenocarcinoma), HepG2 cells (hepatocellular carcinoma), Hep3B (hepatocellular carcinoma), were obtained from American Type Culture Collection (Manassas, Va.). T24 were cultured in McCoy's 5A medium supplemented with 10% fetal bovine serum. Other cells were cultured in DMEM medium plus 10% fetal bovine serum. All cells were grown in a humidified 37° C. incubator containing 5% CO2.
(§2) Cells were seeded at 2×10^4 cells per well in a 12-well dish 24 hours prior to treatments. Cells were treated with 5-Aza-CdR (Sigma-Aldrich Chemical Company, St. Louis, Mo.), NPEOC-DAC at the indicated concentrations. 5-aza-2′-deoxyazacytidine was dissolved in distilled water and NPEOC-DAC was dissolved in dimethyl sulfoxide (DMSO). Untreated controls of the DMSO solvent alone were also included. Cells were treated at the concentrations indicated for each experiment. Cells were collected after the number of days indicated in individual experiments. […]
(§3) Bisulfite modification of genomic DNA has been described previously (28). […] Bisulfite treated DNA was stored at −20° C. until ready for use.
(§4) Bisulfite-converted DNA was used for pyrosequencing analysis as previously described (29). […] Raw data were analyzed with the allele quantification algorithm using the provided software. […]

[3] = system: LINE-1 DNA methylation in MCF7 cells (breast); assay: Global DNA methylation, bisulfite-PCR pyrosequencing of LINE-1, MCF7 cells; assay type: cell-based; settings: MCF; 10 μM; three days
Protocol: as §1, §2, §3, §4

HepG2 cells = assay: Cell toxicity during drug treatment of HepG2 cells; assay type: cell-based; settings: for toxicity: 10 uM continual treatment, time course
Protocol: (§5) Cells were seeded at 2×10^4 cells per well in a 12-well dish 24 hours prior to treatments. Cells were treated with 5-Aza-CdR (Sigma-Aldrich Chemical Company, St. Louis, Mo.), NPEOC-DAC at the indicated concentrations. 5-aza-2′-deoxyazacytidine was dissolved in distilled water and NPEOC-DAC was dissolved in dimethyl sulfoxide (DMSO). Untreated controls of the DMSO solvent alone were also included. Cells were treated at the concentrations indicated for each experiment. Cells were collected after the number of days indicated in individual experiments. For subsequent methylation, genomic DNA was extracted using standard phenol/chloroform extraction methods, as described previously (27). Each experiment was done in triplicate and standard deviations are indicated by error bars.

[4] = system: ID4 DNA methylation in HepG2 cells; assay: ID4 gene methylation, bisulfite-PCR pyrosequencing, HepG2 cells; assay type: cell-based; settings: 10 μM, 3 days, baseline 94.7%
Protocol: as §1, §2, §3, §4

[5] = system: LINE-1 DNA methylation in T24 cells (bladder); assay: Global DNA methylation, bisulfite-PCR pyrosequencing of LINE-1, T24 cells; assay type: cell-based; settings: for LINE-1 methylation level after treatment: baseline 47.3%; for decrease in global DNA methylation (LINE-1): three days
Protocol: as §1, §5
(§6) Bisulfite modification of genomic DNA has been described previously (28). In brief, 1.5 μg of DNA was denatured in 50 μl of 0.2 M NaOH for 10 min at 37° C. Then, 30 μl of freshly prepared 10 mM hydroquinone (Sigma) and 520 μl of 3 M sodium bisulfite (Sigma) at pH 5.0 were added and mixed. The samples were overlaid with mineral oil to prevent evaporation and incubated at 50° C. for 16 h. The bisulfite-treated DNA was isolated using Wizard DNA Clean-Up System (Promega). The DNA was eluted by 50 microliters of warm water and 5.5 microliters of 3 M NaOH were added for 5 min. The DNA was ethanol precipitated with glycogen as a carrier and resuspended in 20 microliters of water. Bisulfite treated DNA was stored at −20° C. until ready for use.
(§7) Bisulfite-converted DNA was used for pyrosequencing analysis as previously described (29). In brief, PCR product of each gene was used for individual sequencing reaction. Streptavidin-Sepharose beads (Amersham Biosciences, Uppsala, Sweden) and Vacuum Prep Tool (Biotage AB, Uppsala, Sweden) was used to purify the single-stranded biotinylated PCR product per the manufacturer's recommendation. The appropriate sequencing primer was annealed to the purified PCR product and used for a pyrosequencing reaction using the PSQ 96HS system (Biotage AB, Uppsala, Sweden). Raw data were analyzed with the allele quantification algorithm using the provided software. Pyrosequencing was done for LINE-1 elements and ID4 tumor suppressor gene.

[6] = system: ID4 DNA methylation in Hep3B cells; assay: ID4 gene methylation, bisulfite-PCR pyrosequencing, Hep3B cells; assay type: cell-based; settings: 10 μM, 3 days, baseline 95.4%
Protocol: as §1, §2, §3, §4

[7] = system: ID4 DNA methylation in MCF7 cells; assay: ID4 gene methylation, bisulfite-PCR pyrosequencing, MCF7 cells; assay type: cell-based; settings: MCF; 10 μM; 3 days; baseline 39.0%
Protocol: as §1, §2, §3, §4

[8] = system: epigenetically silenced GFP reporter gene in NIH3T3 cells; assay: Epigenetic GFP reporter system, NIH3T3 cells with transient CES1 or CES2 transfection; assay type: cell-based; settings: NIH3T3 GFP reporter clone
From the text: It was discovered that NPEOC-DAC could inhibit DNA methylation in cells expressing CES1 but not cells expressing CES2, and that inhibition of CES by NDGA blocked the ability of NPEOC-DAC to inhibit DNA methylation. […] Transfection of CES2 had no effect on NPEOC-DAC treatment and activation of GFP. NPEOC-DAC activation is dependent on CES1 expression.

[9] = system: ID4 DNA methylation in T24 cells; assay: ID4 gene methylation, bisulfite-PCR pyrosequencing, T24 cells; assay type: cell-based; settings: 10 μM, 3 days, baseline 40.2%
Protocol: as §1, §2, §3, §4

[10] = system: LINE-1 DNA methylation in HepG2 cells (liver); assay: Global DNA methylation, bisulfite-PCR pyrosequencing of LINE-1, HepG2 cells; assay type: cell-based; settings: for LINE-1 methylation level after treatment / LINE-1 methylation level, time course / decrease in global DNA methylation (LINE-1): HepG2; for LINE-1 methylation level after treatment: 3 days, untreated baseline 53.9%; for LINE-1 methylation level, time course: 10 μM continual treatment, baseline 53.9%; for decrease in global DNA methylation (LINE-1): three days
Protocol: as §1, §5, §6, §7

[11] = system: ID4 expression in HepG2 cells; assay: ID4 mRNA expression by RT-PCR in HepG2 cells; assay type: cell-based; settings: 3 days of treatment, untreated cells no detectable ID4
Protocol: Genomic DNA was isolated by standard proteinase K digestion and phenol-chloroform extraction (26). Total RNA was collected and extracted from cultured cells with the RNeasy Protect minikit (Qiagen, Valencia, Calif.) according to the manufacturer's protocol.
as §5
Total RNA (5 micrograms) extracted from cultured cells was reverse transcribed with Moloney murine leukemia virus reverse transcriptase (Invitrogen, Carlsbad, Calif.) and random hexamers (NEB) in a total volume of 20 microliters. The reverse transcription was performed according to the manufacturer's recommended protocol. […]

[12] = system: LINE-1 DNA methylation in HepG2 cells (carboxylesterase dependence); assay: Inhibition of carboxylesterase by NDGA: LINE-1 methylation in HepG2 cells; assay type: cell-based
From the text: as §7
For dose effects of nordihydroguaiaretic acid (NDGA) on CES inhibition, HepG2 cells were grown in 6-well plates. […] Cells were harvested on day 4 by Tripsin-EDTA.

Solubility in water = assay type: physicochemical; settings: consequently dissolved in DMSO

Row | SMILES | decrease in global DNA methylation (LINE-1) [2] [%] | decrease in global DNA methylation (LINE-1) [3] [%] | toxicity (HepG2 cells) | decrease in DNA methylation of ID4 [4] [%] | decrease in global DNA methylation (LINE-1) ([5]; 10 μM) [%] | decrease in DNA methylation of ID4 [6] [%] | decrease in DNA methylation of ID4 [7] [%] | reactivation of GFP ([8]; no CES transfection) | decrease in DNA methylation of ID4 [9] [%] | LINE-1 methylation level after treatment ([10]; 0.5 μM) | LINE-1 methylation level, time course ([10]; day 1) | LINE-1 methylation level, time course ([10]; day 7) | decrease in global DNA methylation (LINE-1) ([10]; 10 μM) [%] | ID4 mRNA expression (RT-PCR) [11] | also measured
1 | Nc1ncn([C@@H]2O[C@H](CO)[C@@H](O)[C@H]2O)c(=O)n1 [5-azacytidine] |  |  |  |  |  |  |  |  |  |  |  |  |  |  | in vivo plasma half-life [1]: 41 min
2 | Nc1ncn([C@H]2C[C@H](O)[C@@H](CO)O2)c(=O)n1 [DAC, 5-aza-2′-deoxycytidine, reference compound] | 12.3 | 11.0 | significant toxicity | 2.6 | 57.1 | 1.1 | 19.7 | could be reactivated | 38.1 | 46.0% | 36.5% | returned to baseline | 5.6 | clear expression of ID4 could be detected | cell toxicity (HepG2 cells; higher concentrations (5 μM), 3 days): significant cell toxicity; LINE-1 methylation level after treatment ([5]; 0.5 uM, 3 days): 26.8%; LINE-1 methylation level after treatment ([5]; 1 uM, 3 days): 21.0%; LINE-1 methylation level after treatment ([5]; 5 uM, 3 days): 35.7%; LINE-1 methylation level after treatment ([10]; 1 μM): 47.0%; LINE-1 methylation level after treatment ([10]; 5 μM): 56.9%
3 | CC(Cc1ccc(O)c(O)c1)C(C)Cc1ccc(O)c(O)c1 (centres unmarked) [NDGA, nordihydroguaiaretic acid, reference compound] |  |  |  |  |  |  |  |  |  |  |  |  |  |  | effect on DNA methylation of HepG2 cells ([12]; 100 μM, alone): no effect
4 | O=C(Nc1ncn([C@H]2C[C@H](O)[C@@H](CO)O2)c(=O)n1)OCCc1ccc([N+](=O)[O-])cc1 [NPEOC-DAC, 2′-deoxy-N4-[2-(4-nitrophenyl)ethoxycarbonyl]-5-azacytidine] | 17.4 | 5.1 | less toxicity than observed with DAC | 24.7 | 0.9 | 26.2 | 10.0 | without reactivation of GFP | 8.2 | no detectable effect | did not begin to decrease LINE-1 methylation until day 3 | 38.9% | 22.1 | increased expression of ID4 | solubility in water (Solubility in water): very low solubility in water; decrease in DNA methylation (LINE-1), time course ([5]; 10 μM, prolonged treatment (to day 14)): did not show any decrease; change in DNA methylation (LINE-1) ([5]; 3 days, up to the highest concentrations): no change in DNA methylation; reactivation of GFP ([8]; transfection of CES2): no effect; reactivation of GFP ([8]; transient transfection of human CES1 gene): reactivation of GFP; LINE-1 methylation decreased by ([12]; 10 μM NPEOC-DAC alone): 49.7%; LINE-1 methylation level after treatment ([12]; 10 μM NPEOC-DAC alone): 24.5%; LINE-1 methylation change in combination with NDGA ([12]; in combination with NDGA (100 μM)): did not decrease; delay in the effects compared to DAC [10]: 3 days; fold less efficient at inhibiting DNA methylation compared to DAC [10]: 23 fold; LINE-1 methylation level, time course ([10]; day 3): 43.7%; LINE-1 methylation level, time course ([10]; day 14): 30.9%; LINE-1 methylation level after treatment ([10]; 10 μM, concentration series): 42.0%; LINE-1 methylation level after treatment ([10]; 100 μM): 28.7%
